Experimental data published in US10232041B2, “Combination of lenalidomide and polypeptide construct, and uses thereof” (Teva Pharmaceuticals Australia Pty Ltd, priority 2014, dated 2019).
“Also recorded” adds a separate entry of the source.

How the values were obtained:
[1] = system: NCI-H929 multiple myeloma cells; assay: NCI-H929 multiple myeloma xenograft, anti-CD38 antibody-attenuated IFN alpha-2b construct + lenalidomide (Example 1); type: in vivo, SCID mice; conditions: IFN-alpha 0.5 mg/kg; for tumor growth / tumor volume as a function of time (in words): construct 2.5 mg/kg ip biweekly (suboptimal), lenalidomide 2.5 mg/kg or 25 mg/kg daily for 21 days ip, FIG. 1, FIG. 2; for time at which tumor growth initiated and accelerated: after commencing treatment, construct 2.5 mg/kg ip biweekly, lenalidomide 2.5 mg/kg
Protocol: When tumors reached an average size of 200-300 mm^3, mice were pair matched into different groups and then treated with vehicle (PBS), free-non-attenuated interferon alpha (IFN-alpha) at 0.5 mg/kg, a suboptimal dose of an anti-CD38 antibody-IFN alpha-2b-145D construct (2.5 mg/kg, molar equivalent to 0.5 mg/kg IFN; ip, biweekly, which was determined by previous in vivo efficacy studies), an isotype-matched antibody-IFN alpha-2b-145D construct (isotype matched to the anti-CD38 antibody, with no anti-CD38 specificity), lenalidomide alone (2.5 mg/kg), a combination of free-non-attenuated interferon alpha and lenalidomide, a combination of lenalidomide and a suboptimal dose of the anti-CD38 antibody-IFN alpha-2b-145D construct, or a combination of the isotype control antibody-IFN alpha-2b-145D construct and lenalidomide. The amount of the anti-CD38 antibody-attenuated IFN alpha-2b construct administered was normalized to an IFN-alpha molar equivalent of the 0.5 mg/kg of free interferon administered to the animals.

[2] = system: H929 multiple myeloma tumor cells
Protocol: In this experiment, 8-12 week-old female CB.17 severe combined immunodeficient (SCID) mice were implanted with 1×10^7 H929 multiple myeloma tumor cells in 50% Matrigel® subcutaneously in the flank. Tumor volume was measured by calipers biweekly. When tumors reached an average size of 170-350 mm^3, mice were randomized and treatment commenced. An animal was terminated if the tumor grew to a volume of greater than 2000 mm^3 before the study was completed at day 60.
Ten animals were assigned to each of groups 1 to 10. Treatment may cause “partial regression” (PR) or complete regression (CR) of the tumor in an animal. In a PR response, the tumor volume was 50% or less of its Day 1 volume for three consecutive measurements during the course of the study, and equal to or greater than 13.5 mm^3 for one or more of these three measurements. In a CR response, the tumor volume was less than 13.5 mm^3 for three consecutive measurements during the study. Any animal with a CR response at the end of the study was additionally classified as a tumor free survivor (TFS).

H929 tumor cells = assay: H929 human multiple myeloma xenograft, pomalidomide study (Example 3); type: in vivo, SCID mice; conditions: pomalidomide 2.5 mg/kg ip qd × 21; constructs 40 μg/dose ip biwk × 4; FIG. 5
Protocol: Pomalidomide, like lenalidomide, is a derivative and an analog of thalidomide with increased potency against multiple myeloma and reduced toxicity.
In brief, sixty female CB.17 SCID mice were injected with 1×10^7 H929 tumor cells subcutaneously in the right flank. […] The endpoint for the study was when tumor volume reached 2000 mm^3. Cohorts were divided as follows, as summarized in Table 6: Group 1, Vehicle (PBS); Group 2, Pomalidomide alone (2.5 mg/kg); Group 3, Anti-CD38-attenuated IFNα- (40 ug/dose); Group 4, Anti-isotype-IFNα-attenuated (40 ug/dose), Group 5, Pomalidomide (2.5 mg/kg) plus anti-CD38-attenuated IFNa (40 μg/dose); and Group 6, Pomalidomide (2.5 mg/kg) plus anti-isotype-attenuated IFNα- (40 μg/dose), Pomalidomide administration started at day 1 and ended on day 21; antibody-interferon fusion construct administration started on day 1 and ended on day 28.

[3] = Group 2: lenalidomide 25 mg/kg ip qd × 21, ten animals per group

Nc1cccc2c1CN(C1CCC(=O)NC1=O)C2=O (racemic) [lenalidomide, (RS)-3-(4-Amino-1-oxo 1,3-dihydro-2H-isoindol-2-yl)piperidine-2,6-dione]
tumor growth / tumor volume as a function of time (in words) [1]: delayed tumor growth relative to the vehicle control; also recorded: delayed the onset of rapid tumor growth | time at which tumor growth initiated and accelerated [1]: within two weeks to about a month | MTV Day 60 (Median Tumor Volume at study end) ([2]; Group 2: lenalidomide 25 mg/kg ip qd × 21): 726 mm^3 | (n) number of surviving animals used for MTV calculation, Day 60 [2, 3]: 1 | CR No. of Complete Regressions [2, 3]: 0 | PR No. of Partial Regressions [2, 3]: 1 | TFS No. of Tumor Free Survivors [2, 3]: 0 | tumor growth (in words) ([2]; sub-optimal dosage of construct, lenalidomide 25 mg/kg, Table 5 and FIG. 3): delayed tumor growth relative to vehicle control

Nc1cccc2c1C(=O)N(C1CCC(=O)NC1=O)C2=O (racemic) [Pomalidomide, (RS)-4-Amino-2-(2,6-dioxopiperidin-3-yl)isoindole-1,3-dione]
tumor growth / tumor shrinkage (in words) (H929 tumor cells): did not substantially slow tumor growth

interferon alpha
tumor growth / tumor volume as a function of time (in words) [1]: delayed tumor growth relative to the vehicle control | time at which tumor growth initiated and accelerated [1]: within two weeks to about a month
